Experimental data published in patent US10875861B1, “Therapeutic compounds” (Rutgers, The State University of New Jersey, priority 2017, dated 2020).

System: BMI-1 protein
Experiment: Inhibition of BMI-1 protein levels in U87 cells (Western blotting)
Assay type: cell-based
Conditions: U87 cells, 72 hours, different concentrations
Experimental: U87 cells were treated with DMSO or different concentrations of compound B1 for 72 hours. Cells were lysed in Cell Lysis Buffer (Cell Signaling, #9803) supplemented with Protease Inhibitor Cocktail (Sigma, #P8340), sonicated briefly while on ice and spun down for 30 minutes at 4° C., after which the supernatant was collected. For each sample, 2 uL of lysate was mixed well into 198 uL de-ionized water. Next, 10 uL of this diluted sample was added to a well in a 96 well plate in quadruplets and mixed with Protein Assay Dye Reagent Concentrate (Bio-Rad, #500-0006) (which was diluted 1:5 with water). BSA standards of 25 ng, 50 ng, 100 ng, 200 ng and 250 ng were also used to the plate and mixed with the reagent. The plate was read in a plate reader at 600 nm and samples were calibrated to the standards to determine the concentration of protein. Using the NuPAGE system (Invitrogen), 25 ug of protein was mixed with NuPAGE LDS 4× Sample Buffer (#NP0007), NuPAGE 10× Reducing Agent (#NP0004) and water, mixed well and heated at 96° C. for 15 minutes to denature the protein. […] Protein signals were detected using ECL Western Blotting Substrate (Pierce, #32106) and filmed.
U87 cells were treated with DMSO or different concentrations of the inhibitors for 72 hours. […] The plate was read in a plate reader at 600 nm and samples were calibrated to the standards to determine the concentration of protein. […]

COc1ccc(Nc2nc(-c3nc4ncccn4c3C)cs2)cc1 [Example B1, N-(4-methoxyphenyl)-4-(3-methylimidazo[1,2-a]pyrimidin-2-yl)thiazol-2-amine]
BMI-1 protein levels in U87 cells (Test C): inhibition of BMI-1 protein levels
